Measured values taken from paper PMC9098912, “Molecular basis for inhibiting human glucose transporters by exofacial inhibitors” (Nature Communications, 2022).
Substitutions are numbered along the chain they refer to.

Columns and labels:
human GLUT3(N43T) = target: T1, human GLUT3(N43T) (Homo sapiens, UniProt P11169, N43T); test: Proteoliposome-based counterflow assay, inhibition of D-[2-3H]-glucose transport; format: biochemical
T1 construct: His10 (N); made in house; host or cells: Sf9 insect cells (baculovirus)
T1 sequence (P11169 1-496 N43T): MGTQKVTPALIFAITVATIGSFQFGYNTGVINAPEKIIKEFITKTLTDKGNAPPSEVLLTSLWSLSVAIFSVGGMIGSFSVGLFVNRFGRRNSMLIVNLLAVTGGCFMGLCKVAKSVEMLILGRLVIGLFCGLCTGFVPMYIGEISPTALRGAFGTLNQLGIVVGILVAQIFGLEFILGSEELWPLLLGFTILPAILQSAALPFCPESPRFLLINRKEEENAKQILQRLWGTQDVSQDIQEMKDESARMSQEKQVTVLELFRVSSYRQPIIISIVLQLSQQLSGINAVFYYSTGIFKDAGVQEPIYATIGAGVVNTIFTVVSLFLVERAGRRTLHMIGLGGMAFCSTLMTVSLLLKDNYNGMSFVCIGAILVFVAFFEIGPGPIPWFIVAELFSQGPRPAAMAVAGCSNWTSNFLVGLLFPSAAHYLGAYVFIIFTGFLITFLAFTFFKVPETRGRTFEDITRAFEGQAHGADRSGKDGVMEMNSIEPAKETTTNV
Experimental: (§1) All mutants were generated by standard PCR-based strategy.
(§2) All counterflow assays were performed at 25 °C. […] Liposome without protein was used as negative control.
(§3) All experiments were repeated at least three times.

[1] = target: T2, human glucose transporter GLUT1(N45T) (Homo sapiens, UniProt P11166, N45T); test: as above; format: biochemical; conditions: GLUT1
T2 construct: made in house
T2 sequence (P11166 1-492 N45T): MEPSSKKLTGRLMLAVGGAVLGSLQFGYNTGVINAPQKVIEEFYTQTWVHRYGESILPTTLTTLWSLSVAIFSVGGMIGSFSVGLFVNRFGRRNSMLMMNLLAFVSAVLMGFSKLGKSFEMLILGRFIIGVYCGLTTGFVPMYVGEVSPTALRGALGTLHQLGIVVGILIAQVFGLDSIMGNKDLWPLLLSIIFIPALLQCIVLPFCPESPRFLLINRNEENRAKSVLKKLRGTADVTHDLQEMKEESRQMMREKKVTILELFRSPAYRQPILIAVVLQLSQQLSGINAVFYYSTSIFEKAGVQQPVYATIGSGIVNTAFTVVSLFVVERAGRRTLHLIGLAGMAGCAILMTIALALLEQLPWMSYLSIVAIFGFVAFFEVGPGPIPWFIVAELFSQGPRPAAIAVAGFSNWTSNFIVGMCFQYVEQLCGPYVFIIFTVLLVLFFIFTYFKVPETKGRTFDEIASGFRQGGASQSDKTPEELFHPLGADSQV
Experimental: as §1, §2, §3

GLUT3 F70A = GLUT3 F70A (Homo sapiens, UniProt P11169, F70A/N43T); test: biochemical
GLUT3 F70A, sequence (P11169 whole entry N43T/F70A, the tested form may be a part): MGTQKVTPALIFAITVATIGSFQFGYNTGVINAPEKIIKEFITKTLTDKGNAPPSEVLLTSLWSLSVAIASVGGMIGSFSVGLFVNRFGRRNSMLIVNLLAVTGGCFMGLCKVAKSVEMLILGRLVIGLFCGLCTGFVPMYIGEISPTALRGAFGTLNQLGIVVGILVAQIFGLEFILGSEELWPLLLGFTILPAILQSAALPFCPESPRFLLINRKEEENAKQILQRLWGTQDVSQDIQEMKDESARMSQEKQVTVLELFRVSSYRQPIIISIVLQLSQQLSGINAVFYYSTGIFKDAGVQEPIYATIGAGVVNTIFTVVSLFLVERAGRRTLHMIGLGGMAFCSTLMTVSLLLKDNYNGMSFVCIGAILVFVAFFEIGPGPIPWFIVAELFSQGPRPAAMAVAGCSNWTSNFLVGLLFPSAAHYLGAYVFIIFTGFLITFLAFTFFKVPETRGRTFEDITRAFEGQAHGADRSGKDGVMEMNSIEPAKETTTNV
Experimental: The recombinant human glucose transporter GLUT1(N45T) and E. coli (strain O157:H7) D-xylose:proton symporter XylE were expressed and purified as described previously[17],[26]. […] In brief, the cDNA of human GLUT3 was cloned into a modified pFastBac vector (Invitrogen) fused with an N-terminal His10 tag. All mutants were generated by standard PCR-based strategy.
(§4) Inhibitors with serial dilutions were mixed with indicated protein. […] MST analyses were conducted on a Monolith NT. […] The MST data was analyzed by Monolith NT.115.

GLUT3 F289A = target: T3, GLUT3 F289A (Homo sapiens, UniProt P11169, F289A/N43T); test: MST binding assay, GLUT3 variant; conditions: read-out: Kd of SA47
T3 construct: His10 (N); made in house; host or cells: Sf9 insect cells (baculovirus)
T3 sequence (P11169 1-496 N43T/F289A): T1 sequence (P11169 1-496 N43T) with F289A
Experimental: as §1, §4

GLUT3 N315A = target: T4, GLUT3 N315A (Homo sapiens, UniProt P11169, N315A/N43T); test: MST binding assay, GLUT3 variant; conditions: read-out: Kd of SA47
T4 construct: His10 (N); made in house; host or cells: Sf9 insect cells (baculovirus)
T4 sequence (P11169 1-496 N43T/N315A): T1 sequence (P11169 1-496 N43T) with N315A
Experimental: as §1, §4

`COC(=O)CCNCc1ccccc1-n1ncc2c(N3CCN(c4cc(F)ccc4OC)CC3)ncnc21` [SA47] gave an IC50 (human GLUT3(N43T)) of 823 ± 138 nM, an inhibition at 160 µM (human GLUT3(N43T); SA47 at 160 μM) of ~85% and an IC50 [1] of 331 ± 38.3 nM. It also gave an inhibition at 160 µM ([1]; SA47 at 160 μM) of ~85%, a Kd (GLUT3 F70A) of 1500 ± 200 nM and a Kd (GLUT3 F289A) of 164 ± 67 nM. The Kd (GLUT3 N315A) was 9500 ± 2200 nM.
